{"source": "patent US20030190368A1", "about": "“METHODS OF DIAGNOSIS AND TRIAGE USING CELL ACTIVATION MEASURES” (priority 1998, published 2003)", "system": "isolated naive human neutrophils", "assay": "Pseudopod formation test: protease inhibitors against pancreatic homogenate-induced neutrophil activation", "format": "cell-based", "description": "For the pseudopod assay, venous blood is collected in heparinized tubes from healthy human volunteers and put on ice. It is important that heparin and not EDTA ([…]) be used as an anticoagulant, as the calcium-chelating properties of EDTA can affect neutrophil activation. […] Other chemicals for the Krebs-Henseleit buffer are from Fisher Scientific, Fair Lawn, N.J. The resuspended cells are then gently layered onto 2.5 ml of a 55% isotonic Percoll (Sigmal Chemical Company) solution and 2.5 ml of a 74% isotonic Percoll solution in deionized water. The suspension is centrifuged for 15 minutes at 600 G and the middle granulocyte layer is removed and resuspended in PBS to achieve a concentration of 10^6 neutrophils/ml. 100 μl aliquots of suspended neutrophils are added to 100 μl of test plasma or activating agent. This mixture is mixed and then incubated for 10 minutes at 27° C. After incubation 100 μl of 3% glutaraldehyde (Fisher Scientific) is added to stop the reaction. 100 μl of crystal violet in phosphate (pH: 7.4) buffer is then added to stain leukocyte nuclei on wet mount preparations. Freely suspended neutrophils with pseudopodia are identified by their segmented nuclei and the presence of cytoplasmic granules. One hundred neutrophils are counted. Cells with pseudopod projection greater than about 1 um are considered positive.\nRat homogenate was collected as described in detail in Example 5. Briefly, male Wistar rats (250-350 gm) were housed in a controlled environment and maintained on a standard pellet diet for at least three days before initiation of experimental procedures. Animals were cannulated via the femoral arteries and vein under general anesthesia using pentobarbital (50 mg/kg i.m.). The rats were exsanguinated and the heart, liver, spleen, small intestine, and pancreas removed. The organs were immediately washed and cleaned in cold 0.25 M sucrose solution. Then, the cleaned organs were vigorously homogenized in Krebs-Henseleit solution ([…]). Aliquots were filtered by centrifugation at 500 G for 10 min. Pancreatic homogenates were incubated for 2.5 hours at 38° C., stirred frequently. Incubated pancreatic homogenate as well as controls were tested against naive human donor neutrophils for pseudopod formation as described in Example 2.\nTo determine whether or not neutrophil activation by pancreatic homogenate is protease dependent, the pseudopod formation test was repeated by preincubation of isolated neutrophils with various protease inhibitors (50 μl) for 10 minutes followed by addition of pancreas homogenate (50 μl) and further incubation for 10 minutes. […] All protease inhibitors were the gift of Dr. Tony E. Hugli of The Scripps Clinic and Research Institute, with the exception of Complete™, an all-purpose protease inhibitor purchased from Boehringer Mannheim, Indianapolis, Ind. One of the components of Complete™ is EDTA (ethylenediaminetetra-acetic acid), a standard anti-coagulant and divalent cation chelator.\nTo determine whether the protease inhibitors were acting on the pancreatic homogenate or the neutrophils themselves, a new set of neutrophil pseudopod experiments was carried out. […] Appropriate controls were recorded as well as a positive control (10^−7 M fMLP) to determine the washed cells' ability to respond to stimuli. Formyl-methionyl-leucyl-phenylalanine (fMLP) was obtained from Sigma Chemical Company, St. Louis, Mo.", "note": "Entries after “also recorded” stand apart in the source; their conditions may differ."}
{"compound": "CS(=O)(=O)O.CS(=O)(=O)O.N=C(N)Nc1ccc(C(=O)Oc2ccc3cc(C(=N)N)ccc3c2)cc1", "note": "[Futhan, 6-amidino-2-naphthyl p-guanidinobenzoate dimethanesulfonate]", "values": [{"measurement": "percent neutrophil activation, Wash group", "setting": "neutrophils incubated 10 min with Futhan 0.1 mg/ml, washed two times, then pancreatic homogenate 10 min", "result": "53.5±31", "unit": "%"}, {"measurement": "percent neutrophil pseudopod formation (activation) by rat pancreatic homogenate in presence of protease inhibitor", "setting": "neutrophils preincubated 10 min with inhibitor (PMSF 1 mM; Complete 1 tablet/20 ml; Benzamidine 1150 μM; Futhan 0.1 mg/ml; aprotinin 20 μM), then homogenate 10 min, homogenate alone 85.1±11.5%", "result": "30.3±11.8", "unit": "%"}, {"measurement": "inhibition of pancreatic homogenate-induced neutrophil activation (in words)", "setting": "pseudopod formation, rat pancreatic homogenate, dimethanesulfonate", "result": "abolished pancreatic homogenate-induced activation; also recorded: dose-dependent inhibition"}, {"measurement": "percent neutrophil activation, Inhibitor group", "setting": "washed neutrophils incubated with combined Futhan 0.1 mg/ml and pancreatic homogenate", "result": "51.5±34", "unit": "%"}]}
